Patent publication US9938258B2 (Karyopharm Therapeutics Inc., priority 2012, dated 2018)
Read-outs that look alike come from different tables or passages of the source.

Assays:
3T3 cells = test: MTT cell proliferation assay, 3T3; type: cell-based, mouse; conditions: Mus musculus
Protocol: (§1) The MTT cell proliferation assay was used to study the cytotoxic properties of the compounds. The assay was performed according to the method described by Roche Molecular Biochemicals, with minor modifications. The assay is based on the cleavage of the tetrazolium salt, MTT, in the presence of an electron-coupling reagent. The water-insoluble formazan salt produced must be solubilized in an additional step. Cells grown in a 96-well tissue culture plate were incubated with the MTT solution for approximately 4 hours. After this incubation period, a water-insoluble formazan dye formed. After solubilization, the formazan dye was quantitated using a scanning multi-well spectrophotometer (ELISA reader). […] The cells were seeded at 5,000-10,000 cells in each well of 96-well plate in 100 μL of fresh culture medium and were allowed to attach overnight. The stock solutions of the compounds were diluted in 100 μL cell culture medium to obtain eight concentrations of each test compound, ranging from 1 nM to 30 μM. […] All optical densities were measured at 490 nm using a Vmax Kinetic Microplate Reader (Molecular Devices). In most cases, the assay was performed in duplicate and the results were presented as a mean percent inhibition to the negative control±SE. The following formula was used to calculate the percent of inhibition: Inhibition (%)=(1-(ODo/OD)) ×100.
(§2) The compounds were tested against MS751, Z138 and 3T3 cells. The MS751 cell line is derived from a metastasis to lymph node of human cervix from a patient diagnosed with squameous cell carcinoma of the cervix. The Z138 cell line is a mature B-cell acute lymphoblastic leukemia cell line derived from a patient with chronic lumphocytic leukemia. 3T3 cells are standard fibroblast cells; they were originally isolated from Swiss mouse embryo tissue.

MS751 cells = test: MTT cell proliferation assay, MS751; type: cell-based, human; conditions: Homo sapiens
Protocol: as §1, §2

Z138 cells = test: MTT cell proliferation assay, Z138; type: cell-based; conditions: Homo sapiens
Protocol: as §1, §2

[1] = NIH3T3, 3T3 cells, approximately 64-72 hours incubation, read-out: MTT Assay IC50, 3T3
[2] = MS751, MS751 cells, approximately 64-72 hours incubation, read-out: MTT Assay IC50, MS751
[3] = Z-138, Z138 cells, approximately 64-72 hours incubation, read-out: MTT Assay IC50, Z138
[4] = NIH3T3, 3T3 cells, eight concentrations 1 nM to 30 μM, incubation approximately 64-72 hours, read-out: MTT Assay IC50, 3T3
[5] = MS751, MS751 cells, eight concentrations 1 nM to 30 μM, incubation approximately 64-72 hours, read-out: MTT Assay IC50, MS751
[6] = Z-138, Z138 cells, eight concentrations 1 nM to 30 μM, incubation approximately 64-72 hours, read-out: MTT Assay IC50, Z138

SMILES	IC50 (3T3 cells; [1])	IC50 (MS751 cells; [2])	IC50 (Z138 cells; [3])	IC50 (3T3 cells; [4])	IC50 (MS751 cells; [5])	IC50 (Z138 cells; [6])	further results
CC1(C)COCCN1C(=O)c1ccc(-c2cc(Cl)c3c(c2)CC(/C=C/C(=O)NCc2ccc(N)nc2)O3)cc1 (stereo not drawn) [Compound 367, (E)-N-((6-aminopyridin-3-yl)methyl)-3-(7-chloro-5-(4-(3,3-dimethylmorpholine-4-carbonyl)phenyl)-2,3-dihydrobenzofuran-2-yl)acrylamide]	0.1 to 5 µM	< 0.1 µM	< 0.1 µM	–	–	–	–
O=C(/C=C/c1cccnc1)NCC1Cc2cc(-c3ccccc3F)cc(Cl)c2O1 (stereo not drawn) [Compound 18, (E)-N-((7-chloro-5-(2-fluorophenyl)-2,3-dihydrobenzofuran-2-yl)methyl)-3-(pyridin-3-yl)acrylamide]	–	–	–	5 to 30 µM	0.1 to 5 µM	0.1 to 5 µM	–
O=C(/C=C/c1cccnc1)NCC1Cc2cc(-c3cccc(CO)c3)cc(Cl)c2O1 (stereo not drawn) [Compound 58, (E)-N-((7-chloro-5-(3-(hydroxymethyl)phenyl)-2,3-dihydrobenzofuran-2-yl)methyl)-3-(pyridin-3-yl)acrylamide]	–	–	–	0.1 to 5 µM	0.1 to 5 µM	0.1 to 5 µM	–
Nc1ccc(/C=C/C(=O)NCC2Cc3cc(-c4ccc(C(=O)C(=O)N5CCOCC5)cc4)cc(Cl)c3O2)cn1 (stereo not drawn) [Compound 909, (E)-3-(6-aminopyridin-3-yl)-N-((7-chloro-5-(4-(2-morpholino-2-oxoacetyl)phenyl)-2,3-dihydrobenzofuran-2-yl)methyl)acrylamide]	0.1 to 5 µM	< 0.1 µM	< 0.1 µM	–	–	–	–
Cc1noc(C)c1-c1cc(Cl)c2c(c1)CC(CNC(=O)/C=C/c1ccc(N)nc1)O2 (stereo not drawn) [Compound 300, (E)-3-(6-aminopyridin-3-yl)-N-((7-chloro-5-(3,5-dimethylisoxazol-4-yl)-2,3-dihydrobenzofuran-2-yl)methyl)acrylamide]	> 30 µM	0.1 to 5 µM	< 0.1 µM	–	–	–	–
CC(=O)c1ccc(-c2cc(Cl)c3c(c2)CC(CNC(=O)/C=C/c2ccc(C)o2)O3)s1 (stereo not drawn) [Compound 150, (E)-N-((5-(5-acetylthiophen-2-yl)-7-chloro-2,3-dihydrobenzofuran-2-yl)methyl)-3-(5-methylfuran-2-yl)acrylamide]	–	–	–	> 30 µM	> 30 µM	> 30 µM	–
CC(=O)c1ccc(-c2cc(Cl)c3c(c2)CC(CNC(=O)/C=C/c2ccc[n+]([O-])c2)O3)s1 (stereo not drawn) [Compound 28, (E)-N-((5-(5-acetylthiophen-2-yl)-7-chloro-2,3-dihydrobenzofuran-2-yl)methyl)-3-(pyridine-1-oxide-3-yl)acrylamide]	–	–	–	> 30 µM	> 30 µM	> 30 µM	–
CS(=O)(=O)c1cncc(-c2cc(Cl)c3c(c2)CC(CNC(=O)/C=C/c2cccnc2)O3)c1 (stereo not drawn) [Compound 77, (E)-N-((7-chloro-5-(5-(methylsulfonyl)pyridin-3-yl)-2,3-dihydrobenzofuran-2-yl)methyl)-3-(pyridin-3-yl)acrylamide]	–	–	–	0.1 to 5 µM	0.1 to 5 µM	0.1 to 5 µM	–
CC(=O)c1ccc(-c2cc(Cl)c3c(c2)CC(CNC(=O)/C=C/c2cnn(C)c2)O3)s1 (stereo not drawn) [Compound 149, (E)-N-((5-(5-acetylthiophen-2-yl)-7-chloro-2,3-dihydrobenzofuran-2-yl)methyl)-3-(1-methyl-1H-pyrazol-4-yl)acrylamide]	–	–	–	> 30 µM	> 30 µM	> 30 µM	–
CC(=O)c1ccc(-c2cc(Cl)c3c(c2)CC(CNC(=O)/C=C/c2ccccc2)O3)s1 (stereo not drawn) [Compound 38, N-((5-(5-acetylthiophen-2-yl)-7-chloro-2,3-dihydrobenzofuran-2-yl)methyl)cinnamamide]	–	–	–	> 30 µM	> 30 µM	> 30 µM	–
Nc1ccc(/C=C/C(=O)NCC2Cc3cc(-c4cnc(C(=O)N5CCOCC5)c(Cl)c4)cc(Cl)c3O2)cn1 (stereo not drawn) [Compound 326, (E)-3-(6-aminopyridin-3-yl)-N-((7-chloro-5-(5-chloro-6-(morpholine-4-carbonyl)pyridin-3-yl)-2,3-dihydrobenzofuran-2-yl)methyl)acrylamide]	5 to 30 µM	0.1 to 5 µM	< 0.1 µM	–	–	–	–
Nc1ccc(/C=C/C(=O)NCC2Cc3c(-c4ccc(C(=O)N5CCOCC5)cc4)ccc(Cl)c3O2)cn1 (stereo not drawn) [Compound 249, (E)-3-(6-aminopyridin-3-yl)-N-((7-chloro-4-(4-(morpholine-4-carbonyl)phenyl)-2,3-dihydrobenzofuran-2-yl)methyl)acrylamide]	0.1 to 5 µM	< 0.1 µM	< 0.1 µM	–	–	–	–
Nc1ccc(CNC(=O)/C=C/C2Cc3c(-c4ccc(S(=O)(=O)N5CCOCC5)cc4)ccc(Cl)c3O2)cn1 (stereo not drawn) [Compound 364, (E)-N-((6-aminopyridin-3-yl)methyl)-3-(7-chloro-4-(4-(morpholinosulfonyl)phenyl)-2,3-dihydrobenzofuran-2-yl)acrylamide]	5 to 30 µM	0.1 to 5 µM	> 30 µM	–	–	–	–
Nc1ccc(/C=C/C(=O)NCC2Cc3c(-c4ccccc4C(=O)N4CCOCC4)ccc(Cl)c3O2)cn1 (stereo not drawn) [Compound 344, (E)-3-(6-aminopyridin-3-yl)-N-((7-chloro-4-(2-(morpholine-4-carbonyl)phenyl)-2,3-dihydrobenzofuran-2-yl)methyl)acrylamide]	< 0.1 µM	< 0.1 µM	0.1 to 5 µM	–	–	–	–
Nc1ccccc1-c1cc(Cl)c2c(c1)CC(CNC(=O)/C=C/c1cccnc1)O2 (stereo not drawn) [Compound 84, (E)-N-((5-(2-aminophenyl)-7-chloro-2,3-dihydrobenzofuran-2-yl)methyl)-3-(pyridin-3-yl)acrylamide]	–	–	–	5 to 30 µM	0.1 to 5 µM	0.1 to 5 µM	–
CC(=O)c1ccc(-c2cc(Cl)c3c(c2)CC(CNC(=O)/C=C/c2cnn(C)c2C)O3)s1 (stereo not drawn) [Compound 157, (E)-N-((5-(5-acetylthiophen-2-yl)-7-chloro-2,3-dihydrobenzofuran-2-yl)methyl)-3-(1,5-dimethyl-1H-pyrazol-4-yl)acrylamide]	–	–	–	> 30 µM	> 30 µM	> 30 µM	–
CC(=O)c1ccc(-c2cc(Cl)c3c(c2)CC(CNC(=O)/C=C/c2ncc[nH]2)O3)s1 (stereo not drawn) [Compound 278, (E)-N-((5-(5-acetylthiophen-2-yl)-7-chloro-2,3-dihydrobenzofuran-2-yl)methyl)-3-(1H-imidazol-2-yl)acrylamide]	–	–	–	> 30 µM	> 30 µM	> 30 µM	–
CC1(C)CN(C(=O)c2ccc(-c3cc(Cl)c4c(c3)CC(/C=C/C(=O)NCc3ccc(N)nc3)O4)cc2)C1 (stereo not drawn) [Compound 362, (E)-N-((6-aminopyridin-3-yl)methyl)-3-(7-chloro-5-(4-(3,3-dimethylazetidine-1-carbonyl)phenyl)-2,3-dihydrobenzofuran-2-yl)acrylamide]	< 0.1 µM	< 0.1 µM	> 30 µM	–	–	–	–
Cc1ccc(-c2cc(Cl)c3c(c2)CC(CNC(=O)/C=C/c2cccnc2)O3)cc1 (stereo not drawn) [Compound 15, (E)-N-((7-chloro-5-p-tolyl-2,3-dihydrobenzofuran-2-yl)methyl)-3-(pyridin-3-yl) acrylamide]	–	–	–	5 to 30 µM	0.1 to 5 µM	0.1 to 5 µM	–
COc1cc(-c2ccc(C(=O)N3CCOCC3)cc2)cc2c1OC(CNC(=O)/C=C/c1ccc(N)nc1)C2 (stereo not drawn) [Compound 345, (E)-3-(6-aminopyridin-3-yl)-N-((7-methoxy-5-(4-(morpholine-4-carbonyl)phenyl)-2,3-dihydrobenzofuran-2-yl)methyl)acrylamide]	–	–	–	–	–	–	IC50 (3T3 cells; NIH3T3, read-out: MTT Assay IC50, 3T3): < 0.1 µM; IC50 (MS751 cells; MS751, read-out: MTT Assay IC50, MS751): < 0.1 µM; IC50 (Z138 cells; Z-138, read-out: MTT Assay IC50, Z138): 0.1 to 5 µM
CC(=O)c1ccc(-c2cc(Cl)c3c(c2)CC(CNC(=O)/C=C/c2ccccn2)O3)s1 (stereo not drawn) [Compound 103, (E)-N-((5-(5-acetylthiophen-2-yl)-7-chloro-2,3-dihydrobenzofuran-2-yl)methyl)-3-(pyridin-2-yl)acrylamide]	–	–	–	> 30 µM	> 30 µM	> 30 µM	–
C/C=C/C(=O)NCC1Cc2cc(-c3ccc(C(C)=O)s3)cc(Cl)c2O1 (stereo not drawn) [Compound 181, (E)-N-((5-(5-acetylthiophen-2-yl)-7-chloro-2,3-dihydrobenzofuran-2-yl)methyl)but-2-enamide]	–	–	–	> 30 µM	> 30 µM	> 30 µM	–
CC(=O)c1ccc(-c2cc(Cl)c3c(c2)CC(CNC(=O)/C=C/c2ccc(N)nc2)O3)s1 (single isomer, unassigned) [Compound 308, (E)-N-((5-(5-acetylthiophen-2-yl)-7-chloro-2,3-dihydrobenzofuran-2-yl)methyl)-3-(6-aminopyridin-3-yl)acrylamide]	5 to 30 µM	0.1 to 5 µM	0.1 to 5 µM	–	–	–	–
